In ChEMBL document CHEMBL3991601, “The target landscape of clinical kinase drugs” (Science, 2017):
The source made the active and inactive calls.

Columns and labels:
[1] = molecular target: T1, Cysteine--tRNA ligase, cytoplasmic (Homo sapiens, UniProt P49589)
T1 sequence (P49589 whole entry): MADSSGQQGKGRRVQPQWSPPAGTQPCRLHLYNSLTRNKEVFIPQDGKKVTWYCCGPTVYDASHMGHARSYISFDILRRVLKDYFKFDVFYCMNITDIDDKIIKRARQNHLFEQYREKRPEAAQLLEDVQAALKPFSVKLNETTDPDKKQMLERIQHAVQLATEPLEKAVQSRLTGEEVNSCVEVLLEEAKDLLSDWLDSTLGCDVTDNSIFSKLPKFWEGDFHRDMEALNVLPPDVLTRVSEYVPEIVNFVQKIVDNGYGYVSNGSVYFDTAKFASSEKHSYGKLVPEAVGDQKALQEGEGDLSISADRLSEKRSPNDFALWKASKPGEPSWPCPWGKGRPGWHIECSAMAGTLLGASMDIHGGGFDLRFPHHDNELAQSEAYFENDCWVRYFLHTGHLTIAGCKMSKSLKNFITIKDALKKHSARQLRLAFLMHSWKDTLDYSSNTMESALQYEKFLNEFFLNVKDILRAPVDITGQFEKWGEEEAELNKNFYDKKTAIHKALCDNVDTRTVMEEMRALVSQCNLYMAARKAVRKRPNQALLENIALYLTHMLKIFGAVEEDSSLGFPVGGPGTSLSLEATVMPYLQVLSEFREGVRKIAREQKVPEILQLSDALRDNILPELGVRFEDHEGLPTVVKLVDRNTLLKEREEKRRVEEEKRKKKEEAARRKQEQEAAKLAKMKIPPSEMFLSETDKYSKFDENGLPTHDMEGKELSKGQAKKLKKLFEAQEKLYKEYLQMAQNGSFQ

[2] = molecular target: Dual specificity protein kinase CLK4 (Homo sapiens, UniProt Q9HAZ1)
[3] = molecular target: Rho-associated protein kinase 1 (Homo sapiens, UniProt Q13464)
[4] = molecular target: Serine/threonine-protein kinase PLK1 (Homo sapiens, UniProt P53350)
[5] = molecular target: T2, Tyrosine-protein kinase Mer (Homo sapiens, UniProt Q12866)
T2 sequence (Q12866 whole entry): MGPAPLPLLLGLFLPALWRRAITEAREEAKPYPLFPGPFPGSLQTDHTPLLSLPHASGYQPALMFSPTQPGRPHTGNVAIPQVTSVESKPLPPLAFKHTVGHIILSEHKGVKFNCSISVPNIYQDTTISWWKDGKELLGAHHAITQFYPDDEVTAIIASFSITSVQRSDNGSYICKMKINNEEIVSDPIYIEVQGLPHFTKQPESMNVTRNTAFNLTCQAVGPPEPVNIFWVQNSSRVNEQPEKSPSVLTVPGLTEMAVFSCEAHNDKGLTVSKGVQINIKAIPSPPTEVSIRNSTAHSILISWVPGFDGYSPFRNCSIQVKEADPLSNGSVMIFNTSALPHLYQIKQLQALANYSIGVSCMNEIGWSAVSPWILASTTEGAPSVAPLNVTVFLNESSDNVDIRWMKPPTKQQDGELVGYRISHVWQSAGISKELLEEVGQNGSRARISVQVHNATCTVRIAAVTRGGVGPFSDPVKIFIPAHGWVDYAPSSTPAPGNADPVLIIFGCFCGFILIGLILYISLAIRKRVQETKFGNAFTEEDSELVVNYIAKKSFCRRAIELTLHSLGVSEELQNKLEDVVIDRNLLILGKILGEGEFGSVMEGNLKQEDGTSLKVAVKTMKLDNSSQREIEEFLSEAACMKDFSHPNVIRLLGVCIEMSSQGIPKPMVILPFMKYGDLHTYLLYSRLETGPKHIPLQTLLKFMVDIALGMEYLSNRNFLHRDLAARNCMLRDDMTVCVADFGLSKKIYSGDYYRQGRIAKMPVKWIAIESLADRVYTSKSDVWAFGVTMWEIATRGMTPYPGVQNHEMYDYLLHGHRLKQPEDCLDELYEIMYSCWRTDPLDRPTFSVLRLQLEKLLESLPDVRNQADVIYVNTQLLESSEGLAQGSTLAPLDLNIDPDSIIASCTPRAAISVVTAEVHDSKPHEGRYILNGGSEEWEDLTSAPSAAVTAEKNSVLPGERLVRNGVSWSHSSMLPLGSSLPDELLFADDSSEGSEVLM

[6] = molecular target: Serine/threonine-protein kinase B-raf (Homo sapiens, UniProt P15056)
[7] = molecular target: Serine/threonine-protein kinase 38-like (Homo sapiens, UniProt Q9Y2H1)
[8] = molecular target: Uncharacterized aarF domain-containing protein kinase 5 (Homo sapiens, UniProt Q3MIX3)
[9] = molecular target: Serine/threonine-protein kinase 24 (Homo sapiens, UniProt Q9Y6E0)
[10] = molecular target: Serine/threonine-protein kinase ATR (Homo sapiens, UniProt Q13535)
[11] = molecular target: Phosphatidylethanolamine-binding protein 1 (Homo sapiens, UniProt P30086)
[12] = molecular target: Choline-phosphate cytidylyltransferase A (Homo sapiens, UniProt P49585)
[13] = molecular target: Dual specificity testis-specific protein kinase 2 (Homo sapiens, UniProt Q96S53)
[14] = molecular target: Dual specificity protein kinase CLK3 (Homo sapiens, UniProt P49761); assay type: subcellular, K-562, COLO 205, SK-N-BE(2) and MV-4-11, Cell lysate; conditions: read-out: Kd apparent
[15] = molecular target: Serine/threonine-protein kinase Nek7 (Homo sapiens, UniProt Q8TDX7)
UMP-CMP kinase = molecular target: T3, UMP-CMP kinase (Homo sapiens, UniProt P30085)
T3 sequence (P30085 whole entry): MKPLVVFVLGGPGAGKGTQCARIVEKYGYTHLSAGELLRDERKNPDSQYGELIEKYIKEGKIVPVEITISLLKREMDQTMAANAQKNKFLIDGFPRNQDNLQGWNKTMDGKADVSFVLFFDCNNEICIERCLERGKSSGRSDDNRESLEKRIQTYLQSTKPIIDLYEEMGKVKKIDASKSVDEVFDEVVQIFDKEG
Further: in the data inactive means no Kd found up to 30 µM.

Sequence of Dual specificity protein kinase CLK3 (P49761 whole entry): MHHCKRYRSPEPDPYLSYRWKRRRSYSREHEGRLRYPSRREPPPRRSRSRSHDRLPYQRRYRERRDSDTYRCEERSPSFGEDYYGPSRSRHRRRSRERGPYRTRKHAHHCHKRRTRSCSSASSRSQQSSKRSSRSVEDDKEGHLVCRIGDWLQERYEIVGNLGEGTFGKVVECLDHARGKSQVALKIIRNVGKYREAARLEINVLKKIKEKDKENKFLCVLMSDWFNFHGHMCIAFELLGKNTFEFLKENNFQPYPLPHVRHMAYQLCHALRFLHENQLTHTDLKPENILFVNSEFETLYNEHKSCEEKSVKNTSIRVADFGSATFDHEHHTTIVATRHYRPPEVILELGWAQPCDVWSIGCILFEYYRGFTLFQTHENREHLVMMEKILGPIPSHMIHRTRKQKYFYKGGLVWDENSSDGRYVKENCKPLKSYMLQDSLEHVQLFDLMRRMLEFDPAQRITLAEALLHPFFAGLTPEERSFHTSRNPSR
Sequence of Uncharacterized aarF domain-containing protein kinase 5 (Q3MIX3 whole entry, the tested form may be a part): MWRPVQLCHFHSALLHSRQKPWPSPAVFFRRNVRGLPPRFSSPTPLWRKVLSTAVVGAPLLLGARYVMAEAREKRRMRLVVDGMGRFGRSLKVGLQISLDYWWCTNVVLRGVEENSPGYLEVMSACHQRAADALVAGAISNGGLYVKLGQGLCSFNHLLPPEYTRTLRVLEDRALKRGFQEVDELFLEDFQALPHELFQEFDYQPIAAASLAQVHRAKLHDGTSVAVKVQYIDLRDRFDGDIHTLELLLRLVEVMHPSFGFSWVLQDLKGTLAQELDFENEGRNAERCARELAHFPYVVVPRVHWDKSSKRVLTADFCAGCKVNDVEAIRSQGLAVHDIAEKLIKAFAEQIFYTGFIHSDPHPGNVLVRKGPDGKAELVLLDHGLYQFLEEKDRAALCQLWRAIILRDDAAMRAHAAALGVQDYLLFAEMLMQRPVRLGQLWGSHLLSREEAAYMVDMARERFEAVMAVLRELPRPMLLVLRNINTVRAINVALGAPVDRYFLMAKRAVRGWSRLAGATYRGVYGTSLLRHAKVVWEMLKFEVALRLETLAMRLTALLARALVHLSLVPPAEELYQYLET
Sequence of Serine/threonine-protein kinase 38-like (Q9Y2H1 whole entry, the tested form may be a part): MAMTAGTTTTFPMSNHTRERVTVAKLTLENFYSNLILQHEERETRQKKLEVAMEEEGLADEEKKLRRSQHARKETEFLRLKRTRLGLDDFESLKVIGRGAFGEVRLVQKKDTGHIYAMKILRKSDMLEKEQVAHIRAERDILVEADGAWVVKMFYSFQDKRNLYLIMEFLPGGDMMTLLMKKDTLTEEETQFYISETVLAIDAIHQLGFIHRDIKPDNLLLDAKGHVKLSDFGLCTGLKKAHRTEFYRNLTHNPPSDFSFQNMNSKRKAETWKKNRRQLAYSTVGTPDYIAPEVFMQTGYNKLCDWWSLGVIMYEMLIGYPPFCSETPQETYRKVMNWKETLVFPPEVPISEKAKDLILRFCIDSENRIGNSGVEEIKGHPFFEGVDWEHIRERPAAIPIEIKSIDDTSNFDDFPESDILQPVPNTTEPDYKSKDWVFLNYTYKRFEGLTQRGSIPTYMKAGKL
Sequence of Dual specificity protein kinase CLK4 (Q9HAZ1 whole entry): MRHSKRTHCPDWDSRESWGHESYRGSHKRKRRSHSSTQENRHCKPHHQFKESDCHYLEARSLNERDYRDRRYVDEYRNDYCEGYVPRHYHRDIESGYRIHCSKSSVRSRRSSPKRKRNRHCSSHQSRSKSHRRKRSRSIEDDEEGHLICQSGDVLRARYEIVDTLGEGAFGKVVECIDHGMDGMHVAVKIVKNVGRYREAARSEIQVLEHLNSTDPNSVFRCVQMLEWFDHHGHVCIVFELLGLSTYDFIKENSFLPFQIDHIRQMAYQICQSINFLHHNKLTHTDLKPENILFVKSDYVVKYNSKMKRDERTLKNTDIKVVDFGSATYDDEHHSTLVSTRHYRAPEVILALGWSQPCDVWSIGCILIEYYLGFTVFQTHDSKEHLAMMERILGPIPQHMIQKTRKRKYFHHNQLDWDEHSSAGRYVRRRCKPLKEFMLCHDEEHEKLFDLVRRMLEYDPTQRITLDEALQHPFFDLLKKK
Sequence of Phosphatidylethanolamine-binding protein 1 (P30086 whole entry): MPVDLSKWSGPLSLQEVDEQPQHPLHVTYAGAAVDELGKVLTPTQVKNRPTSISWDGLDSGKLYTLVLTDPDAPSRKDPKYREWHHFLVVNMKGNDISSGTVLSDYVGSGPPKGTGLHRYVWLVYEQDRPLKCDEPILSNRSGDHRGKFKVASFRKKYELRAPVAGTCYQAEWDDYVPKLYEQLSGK
Sequence of Choline-phosphate cytidylyltransferase A (P49585 whole entry): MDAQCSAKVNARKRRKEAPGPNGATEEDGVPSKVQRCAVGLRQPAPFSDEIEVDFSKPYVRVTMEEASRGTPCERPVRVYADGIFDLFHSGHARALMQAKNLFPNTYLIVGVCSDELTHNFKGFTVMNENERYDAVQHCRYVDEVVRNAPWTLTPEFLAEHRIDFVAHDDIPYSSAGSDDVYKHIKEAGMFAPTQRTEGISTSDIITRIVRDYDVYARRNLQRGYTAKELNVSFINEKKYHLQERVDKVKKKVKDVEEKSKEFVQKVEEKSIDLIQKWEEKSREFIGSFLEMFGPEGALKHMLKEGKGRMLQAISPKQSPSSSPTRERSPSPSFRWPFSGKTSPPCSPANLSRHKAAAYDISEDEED
Sequence of Serine/threonine-protein kinase 24 (Q9Y6E0 whole entry): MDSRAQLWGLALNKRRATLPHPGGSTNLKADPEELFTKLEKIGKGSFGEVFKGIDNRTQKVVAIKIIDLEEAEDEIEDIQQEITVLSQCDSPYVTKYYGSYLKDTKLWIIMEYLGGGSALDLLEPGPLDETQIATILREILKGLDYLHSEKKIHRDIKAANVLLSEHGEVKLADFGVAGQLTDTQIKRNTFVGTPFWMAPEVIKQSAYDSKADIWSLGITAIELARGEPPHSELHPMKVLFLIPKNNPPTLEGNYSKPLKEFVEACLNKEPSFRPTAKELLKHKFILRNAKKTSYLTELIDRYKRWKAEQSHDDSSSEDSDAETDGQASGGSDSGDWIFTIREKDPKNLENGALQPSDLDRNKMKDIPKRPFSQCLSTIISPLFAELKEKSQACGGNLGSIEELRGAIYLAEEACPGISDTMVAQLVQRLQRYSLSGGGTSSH
Sequence of Rho-associated protein kinase 1 (Q13464 whole entry): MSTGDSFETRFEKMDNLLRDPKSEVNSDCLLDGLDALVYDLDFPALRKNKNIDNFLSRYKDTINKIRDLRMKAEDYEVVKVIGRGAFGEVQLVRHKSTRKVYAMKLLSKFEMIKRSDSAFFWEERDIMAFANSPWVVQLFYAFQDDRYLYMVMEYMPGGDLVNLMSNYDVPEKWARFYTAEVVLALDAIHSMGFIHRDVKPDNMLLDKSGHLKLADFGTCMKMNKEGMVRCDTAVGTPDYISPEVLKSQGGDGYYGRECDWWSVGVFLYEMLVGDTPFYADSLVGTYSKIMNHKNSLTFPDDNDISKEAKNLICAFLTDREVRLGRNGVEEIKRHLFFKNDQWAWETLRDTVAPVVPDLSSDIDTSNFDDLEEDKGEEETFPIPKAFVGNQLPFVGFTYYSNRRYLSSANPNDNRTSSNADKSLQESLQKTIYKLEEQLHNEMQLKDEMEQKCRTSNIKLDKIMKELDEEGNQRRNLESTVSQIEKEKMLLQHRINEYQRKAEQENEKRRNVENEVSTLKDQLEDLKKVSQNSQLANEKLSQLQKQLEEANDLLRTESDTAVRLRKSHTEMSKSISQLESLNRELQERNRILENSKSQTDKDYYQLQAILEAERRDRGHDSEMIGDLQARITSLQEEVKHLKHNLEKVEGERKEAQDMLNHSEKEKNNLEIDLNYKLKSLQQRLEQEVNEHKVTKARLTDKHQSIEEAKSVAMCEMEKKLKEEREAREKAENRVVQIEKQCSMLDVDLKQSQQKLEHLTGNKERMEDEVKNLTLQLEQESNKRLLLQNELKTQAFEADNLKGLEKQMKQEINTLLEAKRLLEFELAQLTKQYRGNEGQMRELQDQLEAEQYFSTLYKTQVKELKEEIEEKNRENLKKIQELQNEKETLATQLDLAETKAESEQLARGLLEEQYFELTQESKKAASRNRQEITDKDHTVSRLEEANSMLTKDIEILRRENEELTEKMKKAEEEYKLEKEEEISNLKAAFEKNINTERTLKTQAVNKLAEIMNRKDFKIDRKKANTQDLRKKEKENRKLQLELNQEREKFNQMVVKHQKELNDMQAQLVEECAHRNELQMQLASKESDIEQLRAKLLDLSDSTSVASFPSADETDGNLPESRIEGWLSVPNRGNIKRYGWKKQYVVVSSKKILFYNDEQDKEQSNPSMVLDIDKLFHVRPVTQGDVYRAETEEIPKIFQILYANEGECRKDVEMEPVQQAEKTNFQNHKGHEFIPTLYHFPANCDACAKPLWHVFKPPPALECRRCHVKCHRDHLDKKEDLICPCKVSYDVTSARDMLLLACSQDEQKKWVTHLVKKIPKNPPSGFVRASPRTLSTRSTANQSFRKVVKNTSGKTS
Sequence of Serine/threonine-protein kinase PLK1 (P53350 whole entry): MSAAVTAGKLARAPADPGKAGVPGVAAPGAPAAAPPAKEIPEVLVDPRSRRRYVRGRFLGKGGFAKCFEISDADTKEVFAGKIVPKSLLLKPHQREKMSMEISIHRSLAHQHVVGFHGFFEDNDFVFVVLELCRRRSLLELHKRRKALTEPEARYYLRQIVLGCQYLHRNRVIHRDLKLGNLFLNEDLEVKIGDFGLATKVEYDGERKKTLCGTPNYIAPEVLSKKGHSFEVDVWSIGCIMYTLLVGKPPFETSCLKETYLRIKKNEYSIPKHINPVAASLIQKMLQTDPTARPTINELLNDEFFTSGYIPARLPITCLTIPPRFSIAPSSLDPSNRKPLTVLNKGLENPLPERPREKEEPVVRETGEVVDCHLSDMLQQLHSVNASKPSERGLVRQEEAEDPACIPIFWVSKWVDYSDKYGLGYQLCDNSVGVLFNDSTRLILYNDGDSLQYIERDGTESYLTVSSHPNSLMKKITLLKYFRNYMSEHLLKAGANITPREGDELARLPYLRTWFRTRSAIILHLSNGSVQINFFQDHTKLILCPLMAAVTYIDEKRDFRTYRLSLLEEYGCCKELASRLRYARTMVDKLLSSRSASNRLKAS

Row | Structure (SMILES) | Kd [1] | Kd [2] | Kd [3] | Kd [4] | Kd [5] | Kd [6] | Kd [7] | Kd [8] | Kd [9] | Kd [10] | Kd [11] | Kd [12] | Kd [13] | Kd [14] | Kd [15] | Kd (UMP-CMP kinase)
1 | Cc1nc2cc(-c3nn(C(C)C)c4ncnc(N)c34)ccc2o1 | > 30 µM (inactive) | > 30 µM (inactive) | > 30 µM (inactive) | > 30 µM (inactive) | > 30 µM (inactive) | > 30 µM (inactive) | > 30 µM (inactive) | > 30 µM (inactive) | > 30 µM (inactive) | > 30 µM (inactive) | > 30 µM (inactive) | > 30 µM (inactive) | 0.018 µM | – | – | –
2 | COCC(=O)NC/C=C/c1ccc2ncnc(Nc3ccc(Oc4ccc(C)nc4)c(C)c3)c2c1 [CP-724714] | > 30 µM (inactive) | > 30 µM (inactive) | > 30 µM (inactive) | > 30 µM (inactive) | > 30 µM (inactive) | – | > 30 µM (inactive) | > 30 µM (inactive) | – | > 30 µM (inactive) | > 30 µM (inactive) | > 30 µM (inactive) | > 30 µM (inactive) | – | – | –
3 | CNC(=O)c1nn(C)c2c1C(C)(C)Cc1cnc(Nc3ccc(N4CCN(C)CC4)cc3)nc1-2 [MILCICLIB] | > 30 µM (inactive) | 0.018 µM (active) | > 30 µM (inactive) | – | > 30 µM (inactive) | > 30 µM (inactive) | > 30 µM (inactive) | > 30 µM (inactive) | > 30 µM (inactive) | > 30 µM (inactive) | – | > 30 µM (inactive) | > 30 µM (inactive) | > 30 µM (inactive) | > 30 µM (inactive) | –
4 | CC(=O)NCC(=O)N1[C@@H]2CC[C@H]1c1ccc(Nc3ncc(C(F)(F)F)c(NC4CCC4)n3)cc12 [PF-03814735] | > 30 µM (inactive) | – | – | – | > 30 µM (inactive) | > 30 µM (inactive) | > 30 µM (inactive) | – | 0.019 µM | – | – | > 30 µM (inactive) | > 30 µM (inactive) | > 30 µM (inactive) | – | –
5 | CO[C@H]1C[C@@H]2CC[C@@H](C)[C@@](O)(O2)C(=O)C(=O)N2CCCC[C@H]2C(=O)O[C@H]([C@H](C)C[C@@H]2CC[C@@H](OC(=O)C(C)(CO)CO)[C@H](OC)C2)CC(=O)[C@H](C)/C=C(\C)[C@@H](O)[C@@H](OC)C(=O)[C@H](C)C[C@H](C)/C=C/C=C/C=C/1C [TEMSIROLIMUS] | > 30 µM (inactive) | > 30 µM (inactive) | > 30 µM (inactive) | > 30 µM (inactive) | > 30 µM (inactive) | > 30 µM (inactive) | > 30 µM (inactive) | – | > 30 µM (inactive) | > 30 µM (inactive) | > 30 µM (inactive) | > 30 µM (inactive) | – | > 30 µM (inactive) | > 30 µM (inactive) | > 30 µM (inactive)
6 | Cn1cnc2c(F)c(Nc3ccc(Br)cc3F)c(C(=O)NOCCO)cc21 [BINIMETINIB] | > 30 µM (inactive) | > 30 µM (inactive) | > 30 µM (inactive) | > 30 µM (inactive) | > 30 µM (inactive) | > 30 µM (inactive) | > 30 µM (inactive) | > 30 µM (inactive) | > 30 µM (inactive) | > 30 µM (inactive) | > 30 µM (inactive) | > 30 µM (inactive) | – | – | – | > 30 µM (inactive)
7 | C[C@@H](NC(=O)c1ncnc(N)c1Cl)c1ncc(C(=O)Nc2cc(C(F)(F)F)c(Cl)cn2)s1 [TOVORAFENIB] | > 30 µM (inactive) | > 30 µM (inactive) | > 30 µM (inactive) | – | > 30 µM (inactive) | – | > 30 µM (inactive) | > 30 µM (inactive) | > 30 µM (inactive) | > 30 µM (inactive) | > 30 µM (inactive) | > 30 µM (inactive) | > 30 µM (inactive) | > 30 µM (inactive) | – | –
